{"source": "patent US7414075B2", "about": "“Composition for lowering internal lipid content” (Ajinomoto Co., Inc., priority 2003, dated 2008)", "type_in_all_cases": "in vivo, rat", "key": {"[1]": {"test": "Breeding process: body weight and ingested amount of feed in rats on 20% lard food with 1% cholesterol", "details": "0.1 mmol per kg feed, mean ± SD", "description": "(§1) Twenty-four nine-week old male Wistar strain rats were used and divided into four groups each comprising six rats, including a control group, a 0.1 mmol/kg capsaicin group, a 0.1 mmol/kg capsinoid group, and a 1.0 mmol/kg capsinoid group. A 20% lard food to which 1% cholesterol was added was administered as a feed to the control group. For the remaining three groups, capsaicin of 0.1 mmol per kg final concentration of the feed, capsinoid of 0.1 mmol per kg final concentration of the feed, and capsinoid of 1.0 mmol per kg final concentration of the feed, respectively, were added to the feed, similar to the control group. The capsinoid was a mixture of 4-hydroxy-3-methoxybenzyl (E)-8-methyl-6-nonenoate and 4-hydroxy-3-methoxybenzyl 8-methylnonanoate in about 2:1 ratio.\n(§2) The above groups each comprising six rats were subjected to pair feeding for four weeks. Breeding of the experimental animals was conducted in each individual cage and, during the breeding period, body weight was measured once a week and ingested amount of the feed was calculated by deducting the residue from the administered amount. Feces were collected for three days before dissection. After completion of breeding, the rats were sacrificed and dissected. Blood was collected. The liver, the fat around the kidney, and the fat around the epididymis were each separately excised and weighed. Furthermore, the ratio of the excised organs to the total body weight was calculated. Unless otherwise mentioned, the results in the following tables are shown in terms of mean value±standard deviation and, statistically, test of significance was conducted at p<0.05 by ANOVA and Duncan's multiple range test. In the tables, * means p<0.05."}, "male Wistar strain rats [2]": {"system": "male Wistar strain rats", "test": "Excretion of cholesterol into feces during three days before dissection", "details": "0.1 mmol per kg feed, mean ± SD", "description": "as §1\nThe above groups each comprising six rats were subjected to pair feeding for four weeks. Breeding of the experimental animals was conducted in each individual cage and, during the breeding period, body weight was measured once a week and ingested amount of the feed was calculated by deducting the residue from the administered amount. Feces were collected for three days before dissection. After completion of breeding, the rats were sacrificed and dissected. Blood was collected. […] Furthermore, the ratio of the excised organs to the total body weight was calculated. […]"}, "male Wistar strain rats [3]": {"system": "male Wistar strain rats", "test": "Weight of liver, fat around kidney and fat around epididymis, and ratio to total body weight", "details": "0.1 mmol per kg feed, four weeks", "description": "as §1, §2"}, "male Wistar strain rats [4]": {"system": "male Wistar strain rats", "test": "Influence on serum cholesterol and arteriosclerosis index", "details": "0.1 mmol per kg feed, four weeks, * p<0.05", "description": "as §1, §2\nBlood was collected from the experimental animals bred as above and total cholesterol (T-chol) and HDL cholesterol (HDL-chol) in the serum was measured. More specifically, total cholesterol and HDL cholesterol were measured according to a method disclosed in “Akiko Tsujihara and Yumiko Tani: Influence of yucca saponin and pure konjak powder on lipid metabolism of rats fed with a high-fat and high-cholesterol feed: Eiyo Shokuryo Gakkaishi, vol. 51, pp. 157-163 (1998)”. The Arteriosclerosis index was calculated by (T-chol-HDL-chol)/(HDL-chol). The results are shown in Table 4, including the amount of triglyceride in the serum (TG)."}}}
{"smiles": "COc1cc(CNC(=O)CCCC/C=C/C(C)C)ccc1O", "note": "[Capsaicin, capsaicin]", "values": [{"measurement": "Body Weight (g) on Dissected Day", "setting": "[1]; four weeks", "result": "367 ± 12", "unit": "g"}, {"measurement": "Percentage Increase in Body Weight", "setting": "[1]; four weeks", "result": "133 ± 4", "unit": "%"}, {"measurement": "Body Weight (g) on Final Day of Breeding", "setting": "[1]; pair feeding four weeks", "result": "392 ± 11", "unit": "g"}, {"measurement": "Cholesterol in Feces, Excreted Amount", "setting": "male Wistar strain rats [2]", "result": "240 ± 27", "unit": "mg/3 days"}, {"measurement": "Cholesterol in Feces, Excreted Rate", "setting": "male Wistar strain rats [2]", "result": "48.6 ± 3.4", "unit": "%"}, {"measurement": "Fat (g) around Epididymis", "setting": "male Wistar strain rats [3]; mean ± SD", "result": "4.6 ± 0.5", "unit": "g"}, {"measurement": "Fat (g) around Kidney", "setting": "male Wistar strain rats [3]; mean ± SD", "result": "3.8 ± 0.6", "unit": "g"}, {"measurement": "Liver", "setting": "male Wistar strain rats [3]; mean ± SD", "result": "14.4 ± 0.9", "unit": "g"}, {"measurement": "Fat (%) around Epididymis", "setting": "male Wistar strain rats [3]; ratio to total body weight", "result": "1.3 ± 0.1", "unit": "%"}, {"measurement": "Fat (%) around Kidney", "setting": "male Wistar strain rats [3]; ratio to total body weight", "result": "1.0 ± 0.1", "unit": "%"}, {"measurement": "Liver (%)", "setting": "male Wistar strain rats [3]; ratio to total body weight, * p<0.05", "result": "3.9 ± 0.1* %"}, {"measurement": "Arteriosclerosis Index", "setting": "male Wistar strain rats [4]; (T-chol-HDL-chol)/(HDL-chol)", "result": "1.2 ± 0.4"}, {"measurement": "HDL-chol (HDL cholesterol in serum)", "setting": "male Wistar strain rats [4]; serum, mean ± SD", "result": "34.2 ± 6.5* mg/dl"}, {"measurement": "T-chol (total cholesterol in serum)", "setting": "male Wistar strain rats [4]; serum, mean ± SD", "result": "71.2 ± 8.1* mg/dl"}, {"measurement": "TG (triglyceride in the serum)", "setting": "male Wistar strain rats [4]; serum, mean ± SD", "result": "25.5 ± 5.3* mg/dl"}]}
